Publication PMC3416781, “Functional Characterizations of Chemosensory Proteins of the Alfalfa Plant Bug Adelphocoris lineolatus Indicate Their Involvement in Host Recognition” (PLoS ONE, 2012)
Values joined by “and” are separate entries in the source; they are usually repeats but may differ in a detail not shown here. Identical values can stand only once. Like-named read-outs stand apart in the source and are kept apart here.

What was measured:
AlinCSP1 = AlinCSP1 (Adelphocoris lineolatus, UniProt J7EJ71); experiment: biochemical; format: binding
Experimental: (§1) Fluorescence binding assays were performed on an F-380 fluorescence spectrophotometer (Tianjin, China) in a 1 cm light path quartz cuvette. The slit width used for excitation and emission was both 10 nm. The fluorescent probe N-phenyl-1-naphthylamine (1-NPN) was dissolved in methanol with a 1 mM stock solution. 1-NPN was excited at 337 nm and emission spectra were recorded between 390 nm and 530 nm.
(§2) All values reported were obtained from three independent measurements.
(§3) For determining binding constants, the intensity values corresponding to the maximum fluorescence emission were plotted against free ligand concentration. Bound ligand was evaluated from the values of fluorescence intensity assuming the protein was 100% active, with a stoichiometry of 1∶1 protein:ligand at saturation. The curves were linearized using Scatchard Plot.

AlinCSP2 = AlinCSP2 (Adelphocoris lineolatus, UniProt E7BLG5); experiment: biochemical; format: binding
Experimental: as §1, §2, §3

AlinCSP3 = AlinCSP3 (Adelphocoris lineolatus, UniProt E7BLG4); experiment: biochemical; format: binding
Experimental: as §1, §2, §3

A. lineolatus antennae = experiment: Electroantennogram (EAG) recordings; design: species or system Adelphocoris lineolatus; details: normalized to 2-octanone; for EAG response, male versus female antennae: Student t-test between sexes; for EAG response in words: male and female adult antennae, 10% (v/v) in paraffin oil, good ligand = more than 50% of 2-octanone response
From the text: Electrophysiological (EAG) recordings from each sex of adult individuals were made using Ag-AgCl glass pipette electrodes filled with 3 M KCl solution [69], [70]. The insects were anaesthetized by chilling, the antenna was amputated at the base and the tip of the antenna was cut off. The excised antenna was mounted between the electrodes by one teardrop of Spectra R360 electrically conductive gel (Syntech, Netherlands). The base of the antenna was connected to the reference electrode, while the terminal of tip-cut off antenna was connected to the recording electrode. An air stimulus controller CS-55 (Syntech, Netherlands) was used for air and chemical stimulants delivery with a constant flow of 10 ml/second flowed continuously over the antenna through the open end of the glass tube, which was positioned 1 cm from the antenna.
Twenty microliters of tested chemicals (100 µl/ml, 10% (v/v) dilution in paraffin oil except the hexadecanoic acid dissolved in hexane with 100 µg/ml) were applied to filter paper strips (1.5 cm×4 cm, Whatman No.1), and the solvent was allowed to evaporate for 30 sec before the paper strip was inserted into the glass Pasteur pipette cartridge (10 cm long, Fisher Scientific, Pittsburgh, Pennsylvania, USA). The chemicals were tested randomly, stimulus duration time was 0.5 second and an interval of at least 30 seconds was taken between stimulations for antennal recovery. Chemical odorants used for the EAG recordings are the same as used in the binding assays. […] The paraffin oil (Fluka, Buchs, Switzerland) was used to dissolve the chemicals and treated as control compound [71]. Each chemical was tested against six individual male and female antennae, and each antenna was tested three times. The signals were passed through a high impedance amplifier (CS-05 model, Syntech, the Netherlands), EAG responses were initially measured in millivolts (peak height of depolarization) and then converted to normalized responses by the Syntech EAG 2000 program (Syntech, the Netherlands). Response to the solvent control was subtracted from all normalized response and the normalized EAG responses were expressed as a percentage to the reference compound response. All results are presented as mean (±SE) normalized EAG responses. EAG responses between male and female individuals were compared with the Student t-test using SAS software.

[1] = 1-NPN and protein at 2 µM, 50 mM Tris-HCl pH 7.4, KD calculated from IC50, mean of three measurements, read-out: KD (µM) AlinCSP1
[2] = 1-NPN and protein at 2 µM, 50 mM Tris-HCl pH 7.4, KD calculated from IC50, mean of three measurements, read-out: KD (µM) AlinCSP2
[3] = 1-NPN and protein at 2 µM, 50 mM Tris-HCl pH 7.4, KD calculated from IC50, mean of three measurements, read-out: KD (µM) AlinCSP3
[4] = u.d. = KD not calculated because IC50>50 µM, read-out: KD (µM) AlinCSP1, given as u.d.
[5] = u.d. = KD not calculated because IC50>50 µM, read-out: KD (µM) AlinCSP2, given as u.d.
[6] = u.d. = KD not calculated because IC50>50 µM, read-out: KD (µM) AlinCSP3, given as u.d.
[7] = KD (µM) AlinCSP1, 1-NPN and protein at 2 µM, 50 mM Tris-HCl pH 7.4, KD calculated from IC50, mean of three measurements
[8] = KD (µM) AlinCSP2, 1-NPN and protein at 2 µM, 50 mM Tris-HCl pH 7.4, KD calculated from IC50, mean of three measurements
[9] = KD (µM) AlinCSP3, 1-NPN and protein at 2 µM, 50 mM Tris-HCl pH 7.4, KD calculated from IC50, mean of three measurements

Sequence of AlinCSP3 (E7BLG4 entry or part of it): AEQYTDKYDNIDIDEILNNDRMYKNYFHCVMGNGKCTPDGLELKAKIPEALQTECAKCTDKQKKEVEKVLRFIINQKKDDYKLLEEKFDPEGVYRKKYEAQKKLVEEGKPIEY
Sequence of AlinCSP2 (E7BLG5 entry or part of it): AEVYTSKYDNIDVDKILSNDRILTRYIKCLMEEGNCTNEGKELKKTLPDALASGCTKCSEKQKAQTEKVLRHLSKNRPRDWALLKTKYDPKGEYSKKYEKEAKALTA
Sequence of AlinCSP1 (J7EJ71 entry or part of it): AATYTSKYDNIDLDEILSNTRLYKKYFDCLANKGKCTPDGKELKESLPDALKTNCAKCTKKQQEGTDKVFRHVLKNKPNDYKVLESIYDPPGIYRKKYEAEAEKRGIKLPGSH

Compound	Kd (AlinCSP1; [1])	Kd (AlinCSP2; [2])	Kd (AlinCSP3; [3])	Kd (AlinCSP2; [5]) [µM]	Kd (AlinCSP3; [9]) [µM]	also measured
CC/C=C\CCOC(C)=O [(Z)-3-Hexenyl acetate]	7.37 ± 2.49 µM	15.8 ± 1.68 µM	12.2 ± 1.82 µM	–	–	EAG response, male versus female antennae (A. lineolatus antennae): significantly higher EAG responses from female antennae than from male antennae; EAG response in words (A. lineolatus antennae): only elicited a high EAG response in the female
CCCCOC(=O)CCC [Butyl butyrate]	–	–	–	> 50	–	Kd (AlinCSP1; [4]): > 50 µM; Kd (AlinCSP3; [6]): > 50 µM
CCCCCCCCCCCCCC [Tetradecane]	–	–	46.2 ± 2.76 µM	> 50	–	Kd (AlinCSP1; [4]): > 50 µM
CCCCC(C)=O [2-Hexanone]	–	–	–	–	22.5 ± 1.88	Kd (AlinCSP1; [7]): 19.5 ± 1.73 µM; Kd (AlinCSP2; [8]): 20.4 ± 1.82 µM; EAG response, male versus female antennae (A. lineolatus antennae): significantly higher EAG responses from male antennae than from female antennae
CCCCCCCCCC [decane]	44.6 ± 0.75 µM	46.4 ± 0.82 µM	47.2 ± 1.18 µM	–	–	EAG response, male versus female antennae (A. lineolatus antennae): significantly higher EAG responses from female antennae than from male antennae
COC(=O)c1ccccc1O [Methyl salicylate]	–	–	–	–	11.8 ± 1.89	Kd (AlinCSP1; [7]): 8.67 ± 1.92 µM; Kd (AlinCSP2; [8]): 13.3 ± 1.71 µM; EAG response in words (A. lineolatus antennae): failed to elicit high EAG response
CCCCC(C)O (stereo not drawn) [2-Hexanol]	45.4 ± 2.43 µM	–	37.1 ± 1.01 µM	> 50	–	EAG response, male versus female antennae (A. lineolatus antennae): significantly higher EAG responses from female antennae than from male antennae
CCCCCCCCCCCC=O [Dodecanal]	–	–	–	> 50	–	Kd (AlinCSP1; [4]): > 50 µM; Kd (AlinCSP3; [6]): > 50 µM
C/C1=C\CC/C(C)=C/CC(C)(C)/C=C/C1 [α-Humulene]	9.96 ± 0.89 µM	–	8.94 ± 2.97 µM	> 50	–	binding to AlinCSP2 in words (AlinCSP2): failed to bind with AlinCSP2; EAG response in words (A. lineolatus antennae): no notable EAG response
CC1=CC=C(C(C)C)CC1 [α-Terpinene]	–	–	–	–	45.5 ± 2.06	Kd (AlinCSP1; KD (µM) AlinCSP1, given as u.d., u.d. = KD not calculated because IC50>50 µM): > 50 µM; Kd (AlinCSP2; KD (µM) AlinCSP2, given as u.d., u.d. = KD not calculated because IC50>50 µM): > 50 µM
C=C/C(C)=C\CC=C(C)C [(Z)−ocimene]	28.6 ± 1.71 µM	25.1 ± 0.93 µM	22.2 ± 1.01 µM	–	–	–
CCCCOC(C)=O [Butyl acetate]	–	–	–	–	34.5 ± 2.79	Kd (AlinCSP1; [7]): 26.6 ± 1.87 µM; Kd (AlinCSP2; [8]): 41.2 ± 2.89 µM
CCOC(=O)Cc1ccccc1 [Ethyl phenylacetate]	–	–	–	–	24.4 ± 1.32	Kd (AlinCSP1; [7]): 27.3 ± 2.02 µM; Kd (AlinCSP2; [8]): 25.3 ± 1.98 µM
C=C1CCC2CC1C2(C)C (stereo not drawn) [β-Pinene]	–	–	–	–	12.4 ± 2.09	Kd (AlinCSP1; [7]): 7.07 ± 1.41 µM; Kd (AlinCSP2; [8]): 11.1 ± 1.91 µM; EAG response in words (A. lineolatus antennae): failed to elicit high EAG response
C=CC(C)(O)CCC=C(C)CCC=C(C)C (mixture of isomers) [Nerolidol]	28.1 ± 1.26 µM	24.4 ± 1.36 µM	22.4 ± 1.33 µM	–	–	–
C=CC(=O)OCCCC [Butyl acrylate]	–	–	–	–	40.2 ± 2.88	Kd (AlinCSP1; [7]): 38.5 ± 1.69 µM; Kd (AlinCSP2; [8]): 28.1 ± 2.37 µM
c1ccc2[nH]ccc2c1 [Indole]	–	–	–	–	24.6 ± 2.16	Kd (AlinCSP1; [7]): 27.1 ± 1.91 µM; Kd (AlinCSP2; [8]): 22.4 ± 2.01 µM
C=C(C)[C@H]1CC=C(C)CC1 [Limonene]	–	–	–	> 50	–	Kd (AlinCSP1; [4]): > 50 µM; Kd (AlinCSP3; [6]): > 50 µM
CCCCCCCCCC(C)O (stereo not drawn) [2-Undecanol]	–	–	–	> 50	–	Kd (AlinCSP1; [4]): > 50 µM; Kd (AlinCSP3; [6]): > 50 µM
CCCCCCC(=O)OCC [Ethyl heptanoate]	25.3 µM and 43.2 µM	45.3 µM and 38.3 µM	38.3 µM and 35.3 µM	–	–	–
CCCCC [Pentane]	42.2 ± 1.95 µM	39.5 ± 2.54 µM	35.6 ± 2.61 µM	–	–	–
CCCCCCCCCC=O [Decanal]	–	45.9 ± 1.71 µM	42.3 ± 2.76 µM	–	–	Kd (AlinCSP1; [4]): > 50 µM
CCCCCCC(C)=O [2-Octanone]	–	–	39.5 ± 1.91 µM	> 50	–	Kd (AlinCSP1; [4]): > 50 µM
CCCCCCCCCOC(C)=O [Nonyl acetate]	23.6 ± 1.6 µM	29.2 ± 2.19 µM	46.5 ± 3.07 µM	–	–	–
